Tested on: influenza virus
Type: cell-based

Substance: Heparin
- viral activity after 1/100 dilution (virucidal activity): recovery in viral activity

From US20240197634A1, “PHARMACEUTICAL COMPOSITION FOR PREVENTING OR TREATING VIRUS INFECTIONS, COMPRISING POLYMER NANODISCS” (priority 2021, published 2024)
